The values below come from patent US7713971B2, “1,2,4-triazine derivatives, preparation and use thereof in human therapy” (Pierre Fabre Medicament, priority 2005, dated 2010).

Read-outs that look alike come from different tables or passages of the source.

Experiment [1] concerns insulin-resistant male rat (Ico: ZUCKER-fa/fa). The experiment can be described thus: Normalization of metabolic parameters (cholesterol, plasma triglycerides) in insulin-resistant rat. The class given is in vivo. Particulars: oral route, once per day for four days, Zucker fa/fa rat unfed 16-18 hours; for change in vivo at 10 mg/kg / change in vivo at 2.5 mg/kg: 96 h. As for the experimental part:
Normalization of metabolic parameters (cholesterol, plasma triglycerides) in an insulin-resistant male rat (Ico: ZUCKER-fa/fa), unfed for 16-18 hours, after treatment by oral route, once per day for four days, with the compounds to be evaluated or their administration vehicle.
These metabolic parameters are measured by spectrophotometry at the beginning and the end of each animal's treatment.

The next experiment addresses T1, human PPARα (Homo sapiens, UniProt Q07869).
T1 construct: expressed in transfected cells; host or cells: Cos-7 cells (ATCC, CRL-1651)
T1 sequence (Q07869 239-466 limits assumed): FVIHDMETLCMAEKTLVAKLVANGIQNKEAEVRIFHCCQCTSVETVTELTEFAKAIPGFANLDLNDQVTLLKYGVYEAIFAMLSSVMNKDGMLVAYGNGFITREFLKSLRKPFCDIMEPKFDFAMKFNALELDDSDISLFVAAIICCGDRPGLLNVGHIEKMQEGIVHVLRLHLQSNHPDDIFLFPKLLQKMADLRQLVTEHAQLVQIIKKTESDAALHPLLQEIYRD
The experiment can be described thus: Reporter gene transactivation, hPPAR-GAL4 alpha. It is filed as cell-based. The conditions noted are these: transfected Cos-7 cells, Gal-4 luciferase reporter, 24 hours treatment.

In another experiment the target is T2, human PPARγ (Homo sapiens, UniProt P37231).
T2 construct: expressed in transfected cells; host or cells: Cos-7 cells (ATCC, CRL-1651)
T2 sequence (P37231 238-503 limits assumed): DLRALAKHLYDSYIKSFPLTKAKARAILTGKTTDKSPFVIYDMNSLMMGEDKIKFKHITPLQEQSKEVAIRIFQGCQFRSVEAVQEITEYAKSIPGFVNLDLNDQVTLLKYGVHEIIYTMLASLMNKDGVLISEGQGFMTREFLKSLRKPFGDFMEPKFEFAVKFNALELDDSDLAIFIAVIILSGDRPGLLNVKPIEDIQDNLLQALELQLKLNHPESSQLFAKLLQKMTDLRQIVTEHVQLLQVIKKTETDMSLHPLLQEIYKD
Put plainly: Reporter gene transactivation, hPPAR-GAL4 gamma. It is filed as cell-based. The conditions noted are these: transfected Cos-7 cells, Gal-4 luciferase reporter, 24 hours treatment. Background: In a reporter assay the amount or activity of a reporter protein is the signal.

Setting [2] is: at 10 mg/kg, read-out: Plasma cholesterol.
Where [3] appears, read: at 10 mg/kg, read-out: Plasma triglycerides.
[4] abbreviates: at 2.5 mg/kg, read-out: Plasma cholesterol.
Setting [5] is: at 2.5 mg/kg, read-out: Plasma triglycerides.

Broadly, the EC50 is the concentration at which the effect is half-maximal. A high value points to a need for much substance. For the compound `CCOC(=O)C(C)(C)Oc1cccc(CCCCNc2nn(CCC#N)c(=O)n(CCCC(F)(F)F)c2=O)c1` [Example 81, Ethyl 2-(3-{4-[2-(2-cyano-ethyl)-3,5-dioxo-4-(4,4,4-trifluoro-butyl)-2,3,4,5-tetrahydro-[1,2,4]triazin-6-ylamino]-butyl}-phenoxy)-2-methyl-propionate], the change in vivo at 10 mg/kg in experiment [1] (setting [2]) was -12%; in experiment [1] (setting [3]), -17%. In addition, the results for the concentration for a half-maximal effect (EC50) on human PPARα and at human PPARγ were 300 to 1000 nM and greater than 10000 nM, respectively.
In the case of `CCCCCCCn1nc(NCCCCc2cccc(OC(C)(C)C(=O)OCC)c2)c(=O)n(CCCC(F)(F)F)c1=O` [Example 82, Ethyl 2-(3-{4-[2-heptyl-3,5-dioxo-4-(4,4,4-trifluoro-butyl)-2,3,4,5-tetrahydro-[1,2,4]triazin-6-ylamino]-butyl}-phenoxy)-2-methyl-propionate], in experiment [1] (setting [2]), the change in vivo at 10 mg/kg is -13%. In experiment [1] (at 10 mg/kg), the Plasma triglycerides entry is “active at 10 mg/kg”. Also, the EC50 at human PPARα is roughly 10 nM; at human PPARγ, 100 to 300 nM.
In the case of `CCCCCCCn1c(=O)c(NCCCCc2cccc(OC(C)(C)C(=O)OCC)c2)nn(CCCC(F)(F)F)c1=O` [Example 85, Ethyl 2-(3-{4-[4-heptyl-3,5-dioxo-2-(4,4,4-trifluoro-butyl)-2,3,4,5-tetrahydro-[1,2,4]triazin-6-ylamino]-butyl}-phenoxy)-2-methyl-propionate], the change in vivo at 10 mg/kg in experiment [1] (setting [2]) was -21%. Also, the Plasma triglycerides entry in experiment [1] (at 10 mg/kg) was “active at 10 mg/kg”. Also, the EC50 at human PPARα is roughly 30 nM; on human PPARγ it was 1000 to 3000 nM.
The like results for `CCOC(=O)C(C)(C)Oc1cccc(CCCCCNc2nn(CCCC(F)(F)F)c(=O)n(CCCC(F)(F)F)c2=O)c1` [Example 92, Ethyl 2-(3-{5-[3,5-dioxo-2,4-bis-(4,4,4-trifluoro-butyl)-2,3,4,5-tetrahydro-[1,2,4]triazin-6-ylamino]-pentyl}-phenoxy)-2-methyl-propionate] were, in that order, -18%, “inactive at 10”, 3 to 10 nM and 3000 to 10000 nM.
With `CCOC(=O)C(C)(C)Sc1cccc(CCCCNc2nn(C)c(=O)n(CCCC(F)(F)F)c2=O)c1` [Example 95], in experiment [1] (setting [4]), the change in vivo at 2.5 mg/kg is -18%. Further, the change in vivo at 10 mg/kg in experiment [1] (setting [2]) was -40%. The Plasma triglycerides entry in experiment [1] (at 10 mg/kg) is “inactive at .10”. Also, the EC50 is 1000 to 3000 nM on human PPARα and greater than 10000 nM on human PPARγ.
With `CCCCCCCn1nc(NCCc2ccc(SC(C)(C)C(=O)OCC)cc2)c(=O)n(C)c1=O` [Example 119, Ethyl 2-{4-[2-(2-heptyl-4-methyl-3,5-dioxo-2,3,4,5-tetrahydro-[1,2,4]triazin-6-ylamino)-ethyl]-phenylsulfanyl}-2-methyl-propionate], in experiment [1] (setting [4]), the change in vivo at 2.5 mg/kg is -21%. The values for the change in vivo at 10 mg/kg in experiment [1] (setting [2]) and in experiment [1] (setting [3]) were -32% and -29%, respectively. Moreover, the Plasma triglycerides entry in experiment [1] (at 2.5 mg/kg) was “active at 2.5”. The EC50 on human PPARα and on human PPARγ was 300 nM in each case.
For the compound `CCCCCCCn1nc(NCCc2ccc(SC(C)(C)C(=O)O)cc2)c(=O)n(C)c1=O` [Example 120, 2-{4-[2-(2-Heptyl-4-methyl-3,5-dioxo-2,3,4,5-tetrahydro-[1,2,4]triazin-6-ylamino)-ethyl]-phenylsulfanyl}-2-methyl-propionic Acid], the change in vivo at 2.5 mg/kg is -32% in experiment [1] (setting [4]) and -27% in experiment [1] (setting [5]). The change in vivo at 10 mg/kg is -33% in experiment [1] (setting [2]) and -73% in experiment [1] (setting [3]). In addition, the values for the EC50 at human PPARα and on human PPARγ were 300 to 1000 nM and 1000 to 3000 nM, respectively.
As to `CCCCCCCn1nc(NCCc2ccc(SC(C)(C)C(=O)O)cc2)c(=O)n(CCCC)c1=O` [Example 121, 2-{4-[2-(4-Butyl-2-heptyl-3,5-dioxo-2,3,4,5-tetrahydro-[1,2,4]triazin-6-ylamino)-ethyl]-phenylsulfanyl}-2-methyl-propionic Acid], the results for the change in vivo at 2.5 mg/kg in experiment [1] (setting [4]) and in experiment [1] (setting [5]) were -7% and -24%, respectively. The values for the 50% effective concentration (EC50) at human PPARα and at human PPARγ were 30 to 100 nM and 1000 to 3000 nM, respectively.
